Values quoted from earlier work as cited in US20060057620A1, “Treatment of HIV infection” (priority 2004, published 2006).

Tested on: circulating T-cells
Details: FIG. 1

alemtuzumab
time to full recovery of T-cells (after a single dose): ≥ 3 months | killing of circulating T-cells (T-cell depletion) (single dose): able to kill all circulating T-cells
